Test results as given in US7947657B2, “Method for selective inhibition of human N-myc gene in N-myc expressing tumors through antisense and antigen peptido-nucleic acids (PNA)” (Universita Degli Studi Di Parma, priority 2003, dated 2011).
Entries after “also recorded” stand apart in the source; their conditions may differ.

Tests used:
GI-LI-N cells [1] = experiment: cell growth/proliferation test, cell counting and vitality by tryphan blue exclusion; format: cell-based, human; settings: for maximum inhibition effect on cell growth / inhibition effect in proliferation tests: GI-LI-N cells; for maximum inhibition effect on cell growth: 48 hours after treatment
Experimental: (§1) In order to show the effectiveness of the peptide nucleic acids selected by the Applicant, the latter has carried out experimental tests by selecting four neuroblastoma cell lines: GI-LI-N, IMR-32 where N-myc gene is amplified and overexpressed; and GI-CA-N, GI-ME-N where N-myc gene is not amplified and is not expressed.
(§2) In threefold tests using plates with 24 wells, 1.0×10^5 cells have been introduced into the first wells with 0.5 ml of RPMI1640 containing 10% of FBS and 2 mM of […].
(§3) Cells have been incubated for 24 hours so as to let them adhere to the base of the wells.
(§4) Then, in order to assess the optimal concentration for cell growth inhibition, peptide nucleic acid has been added to GI-LI-N cells in concentration of 10, 20, 40 and 60 μM for 5′-UTR antisense PNA, whereas for sense and antisense anti-gene PNAs in concentrations of 1, 2, 5, 10 and 20 μM on GI-LI-N and IMR-32 cells-
(§5) Then, in order to assess the effects of the treatments, cells have been collected and counted 24, 48 and 72 hours after treatment.
(§6) Cells counting and vitality has been determined using colorimetric exclusion method (tryphan blue dye).

GI-CA-N cells [2] = experiment: as above; format: cell-based, human; settings: same conditions
Experimental: as §1, §2, §3
In order to assess the specificity of sense and antisense anti-gene PNAs, GI-ME-N and GI-CA-N (in which N-myc gene is not amplified and is not […] for sense anti-gene PNA).
as §5, §6

N-MYC (protein) = experiment: production of N-MYC protein by Western Blotting in GI-LI-N cell line; format: cell-based, human; settings: for N-MYC protein level (Western Blotting): 20 μM, GI-LI-N
GI-LI-N cells [3] = experiment: flow cytometric cell cycle analysis on GI-LI-N cells; format: cell-based, human
Source text: Moreover, the number of cells in sub-G1 phase with a hypodiploic DNA content (lower number of chromosomes than diploid DNA, i.e. 2n) increases from 3 to 22%.

GI-LI-N cells [4] = experiment: microscopic analysis of morphologic changes/differentiation of GI-LI-N cells; format: cell-based, human; settings: 20 μM
Experimental: In order to assess the differentiation of GI-LI-N cells towards neuronal cells, said cell line has been treated with 20 μM antisense PNA, whereby morphologic changes have been detected by means of microscopic analysis.
Microscope assessment has been carried 36 and 48 hours after GI-LI-N cell growth in the presence or absence of 20 μM antisense PNA.

GI-CA-N cells [5] = experiment: cell entry and intracellular localization by fluorescence microscopy of rhodamine-conjugated PNA; format: cell-based, human
Experimental: (§7) In order to assess the ability of antisense PNAs and of anti-gene PNAs to get into human neuroblastoma cells and to analyze the subsequent intracellular localization, the Applicant has used four cell lines GI-LI-N and IMR-32, GI-CA-N and GI-ME-N- and has treated them for 30 minutes to 24 hours with 20 μM of antisense or sense PNA conjugated with rhodamine in 5′. Anti-gene PNAs were further conjugated with NLS in 3′.

GI-LI-N cells [6] = experiment: as above; format: cell-based, human
Experimental: as §7

IMR-32 cells [7] = experiment: cell growth/proliferation test, cell counting and vitality by tryphan blue exclusion; format: cell-based, human; settings: 10 μM
Experimental: as §1, §2, §3, §4, §5, §6

HT29 cells = experiment: cell growth/proliferation test in colon carcinoma cells; format: cell-based; settings: 10 μM
Experimental: (§8) The treatment with 10 μM sense anti-gene PNA has also been carried out in HT29 cells (deriving from colon carcinoma) and in HeLa cells (deriving from cervical carcinoma) expressing N-myc gene.

HeLa cells = experiment: cell growth/proliferation test in cervical carcinoma cells; format: cell-based; settings: 10 μM
Experimental: as §8

N-MYC protein = experiment: production of N-MYC protein by Western Blotting in IMR-32 cell line; format: cell-based, human; settings: 10 μM
Experimental: In further tests on sense anti-gene PNA, the production of N-MYC protein was assessed by using Western Blotting in IMR-32 cell line after 3 hours of treatment with 10 μM sense anti-gene PNA. A reduction of 50% of protein level has been detected after 3 hours of treatment with sense anti-gene PNA.

IMR-32 cells [8] = experiment: cytofluorimetric cell cycle analysis in IMR-32 cells; format: cell-based, human; settings: 10 μM; for cells in G2/M / cells in Go/G1 / cells in S phase: IMR-32
Experimental: A cytofluorimetric analysis in IMR-32 cells 24 and 48 hours after the treatment with sense anti-gene PNA in a concentration of 10 μM, induced a cell accumulation in Go/G1 (from 39% to 53% after 24 hours; from 31% to 53% after 48 hours) and decrease in G2/M (from 17% to 6% after 24 hours; from 25% to 9% after 48 hours) and S phase (from 45 to 41% after 24 hours; from 44% to 39% after 48 hours).

GI-ME-N cells = experiment: cell growth/proliferation test, cell counting and vitality by tryphan blue exclusion; format: cell-based, human; settings: 10 μM; GI-ME-N cells (N-myc not amplified, not expressed); same conditions
Experimental: as §1, §2, §3
In order to assess the specificity of sense and antisense anti-gene PNAs, GI-ME-N and GI-CA-N (in which N-myc gene is not amplified and is not expressed) have been treated with sense and antisense anti-gene PNA in a concentration of […] (optimal concentration selected for sense anti-gene PNA).
as §5, §6

N-myc transcript = experiment: production of N-myc transcript by PCR of cDNA from GI-LI-N cells; format: cell-based, human; settings: 10 μM, 30 PCR cycles, easily detected in untreated cells
Experimental: The production of N-myc transcript was assessed before and after […] treatment with 10 μM sense anti-gene PNA by amplification in PCR of cDNA obtained from 250 ng of mRNA of GI-LI-N cells. The following primers have been used: sense SEQ ID NO: 5 (ExonE 2, by 2366); antisense SEQ ID NO: 6(Exon 3, by 5095) (Genbank M13241). PCR has been carried out with 30 reaction cycles.

[9] = same test conditions used for sense anti-gene PNA
[10] = 10 μM, cell line not restated (GI-LI-N)

In the case of “antisense PNA: antisense peptide nucleic acid (bp 135-150, SEQ ID NO: 1) complementary to one sequence in 5′-UTR region of N-myc gene (antisense TCCACCCAGCGCGTCC; all peptide nucleic acid (PNA))”, the “maximum inhibition effect on cell growth” value (GI-LI-N cells [1]; 20 μM) is reported as 70%, the “inhibition effect on cell growth” value (GI-CA-N cells [2]; 20 μM, GI-CA-N cells (N-myc not amplified)) is reported as “do not show any inhibition effect” and the “N-MYC protein level (Western Blotting)” value (N-MYC (protein); after 24 hours) is reported as “evident reduction”. The “N-MYC protein level (Western Blotting)” value (N-MYC (protein); after 72 hours) was “reduction decreases”, the “cells in sub-G1 phase with hypodiploic DNA content” value (GI-LI-N cells [3]; 20 μM, GI-LI-N, 36 hours after treatment, from 3 untreated) was 22% and the “cells in G2” value (GI-LI-N cells [3]; 20 μM, GI-LI-N, 36 hours after treatment, from 13 untreated) was 6%. For the same substance, the “cells in G0/G1” value (GI-LI-N cells [3]; 20 μM, GI-LI-N, 36 hours after treatment, from 34% untreated) was 57%, the “cells in S phase” value (GI-LI-N cells [3]; 20 μM, GI-LI-N, 36 hours after treatment, from 53% untreated) was 37% and the “morphologic changes (microscope)” value (GI-LI-N cells [4]; after 36 hours) was “less uniform distribution than control cells”. The “morphologic changes (microscope)” value (GI-LI-N cells [4]; after 48 hours) was “tend to form small cell aggregates”, the “time after treatment at which intracytoplasmatic fluorescence can already be measured” value (GI-CA-N cells [5]; 20 μM PNA conjugated with rhodamine in 5′) was at most 30 min and the “time to maximum fluorescence intensity” value (GI-CA-N cells [5]; 20 μM rhodamine-conjugated PNA, level then constant for 24 hours) was 6 h. For the same substance, the “time after treatment at which intracytoplasmatic fluorescence can already be measured” value (GI-LI-N cells [6]; 20 μM PNA conjugated with rhodamine in 5′, GI-LI-N) was at most 30 min, the “time to maximum fluorescence intensity” value (GI-LI-N cells [6]; 20 μM rhodamine-conjugated PNA, GI-LI-N, level then constant for 24 hours) was 6 h and the “intracellular localization of fluorescence” value (GI-LI-N cells [6]; 20 μM rhodamine-conjugated PNA, cell lines of b80) was “High intracytoplasmatic values”.
“antisense anti-gene PNA: antisense anti-gene PNA (SEQ ID NO: 4) complementary to a sequence of exon 2 N-myc gene, NLS-conjugated (antisense AGATCATGCCCGGCAT; all peptide nucleic acid (PNA); SV40 nuclear localization signal peptide conjugated at 3' end, further chemistry not fully specified)” was tested, and the “inhibition effect in proliferation tests” value (GI-LI-N cells [1]; 10 μM) was “have not shown any inhibition effect; also recorded: do not show any inhibition effect” and the “inhibition effect in proliferation tests” value (IMR-32 cells [7]; IMR-32 cells) was “have not shown any inhibition effect; also recorded: do not show any inhibition effect”.
With “mutated anti-gene PNA: mutated PNA containing the substitution of three bases (SEQ ID NO: 7), specificity control for sense anti-gene PNA (GTGCCGAGCATGGTCT; all peptide nucleic acid (PNA))” the “inhibition effect in cell vitality” value (IMR-32 cells [7]; [9]) was “No inhibition effect”, the “inhibition effect in proliferation tests” value (HT29 cells) was “have not shown any inhibition effect” and the “inhibition effect in proliferation tests” value (HeLa cells) was “have not shown any inhibition effect”. The “inhibition effect in the amount of N-MYC protein” value (N-MYC protein; [9]) was “No inhibition effect” and the “inhibition effect in cell cycle” value (IMR-32 cells [8]; [9]) was “No inhibition effect”.
In the case of “mutated antisense PNA: mutated PNA containing the substitution of three bases (SEQ ID NO: 2), specificity control for antisense PNA (CCCACTCAGCGCGCCC; all peptide nucleic acid (PNA))”, the “inhibition effect in cell vitality” value (GI-LI-N cells [1]; [10]) is reported as “no inhibition effect”, the “inhibition effect in proliferation tests” value (GI-LI-N cells [1]; 20 μM) is reported as “have not shown any inhibition effect” and the “inhibition effect in the amount of N-MYC protein” value (N-MYC (protein); [10]) is reported as “no inhibition effect”. The “inhibition effect in cell cycle” value (GI-LI-N cells [3]; [10]) was “no inhibition effect”.
In the case of “sense anti-gene PNA: sense anti-gene PNA (SEQ ID NO: 3) complementary to a sequence of exon 2 N-myc gene, NLS-conjugated (ATGCCGGGCATGATCT; all peptide nucleic acid (PNA); SV40 nuclear localization signal peptide conjugated at 3' end, further chemistry not fully specified)”, the “maximum inhibition effect on cell growth” value (GI-LI-N cells [1]; 10 μM) is reported as 90%, the “maximum inhibition effect on cell growth” value (IMR-32 cells [7]; IMR-32 cells, 48 hours after treatment) is reported as 80% and the “inhibition effect on cell growth” value (GI-CA-N cells [2]; 10 μM, GI-CA-N cells (N-myc not amplified, not expressed)) is reported as “do not show any inhibition effect”. The “inhibition effect on cell growth” value (GI-ME-N cells) was “do not show any inhibition effect”, the “maximum inhibition effect on cell growth” value (HT29 cells; 48 hours after treatment) was 70% and the “maximum inhibition effect on cell growth” value (HeLa cells; 24 hours after treatment) was 70%. The “reduction of N-MYC protein level (Western Blotting)” value (N-MYC protein; IMR-32, after 3 hours of treatment) was 50%, the “cells in G2/M” value (IMR-32 cells [8]; after 24 hours, from 17% untreated) was 6% and the “cells in Go/G1” value (IMR-32 cells [8]; after 24 hours, from 39% untreated) was 53%. For the same substance, the “cells in S phase” value (IMR-32 cells [8]; after 24 hours, from 45 untreated) was 41%, the “cells in G2/M” value (IMR-32 cells [8]; after 48 hours, from 25% untreated) was 9% and the “cells in Go/G1” value (IMR-32 cells [8]; after 48 hours, from 31% untreated) was 53%. For the same substance, the “cells in S phase” value (IMR-32 cells [8]; after 48 hours, from 44% untreated) was 39% and the “PCR product of N-myc transcript” value (N-myc transcript) was “cannot be detected”.
